The results in this text go back to PubChem BioAssay AID256 (DTP/NCI, 2004).

Where “and” joins values, the source holds several entries; their conditions need not be identical. Identical values can stand only once. Toxic doses and inconclusive results are not listed.

In this experiment the test system is CD2F1 mice, L1210 leukemia ip, survival T/C. Briefly: NCI In Vivo Anticancer Drug Screen. Data for tumor model L1210 Leukemia (intraperitoneal) in CD2F1 (CDF1) mice. The settings on record: endpoint: mean survival time, higher = longer survival. In outline: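 Read-out first: treated-group measurement over vehicle-control measurement, expressed as a ratio. Animals bore a transplanted tumor line and were dosed with compound or vehicle.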

Where [1] appears, read: dose: 100.0 mg/kg/injection, schedule: Q01DX009 (ip), vehicle: saline with Tween-80.
[2] abbreviates: dose: 100.0 mg/kg/injection, schedule: Q04DX003 (ip), vehicle: saline with Tween-80.
[3] abbreviates: dose: 200.0 mg/kg/injection, schedule: Q04DX003 (ip), vehicle: saline with Tween-80.
Setting [4] is: dose: 400.0 mg/kg/injection, schedule: Q04DX003 (ip), vehicle: saline with Tween-80.

Turning to `NC(=O)C(Cc1ccccc1)NC(=O)c1ccccc1` (stereo unspecified), the T/C under setting [1] is 91 % of control.

`CCOC(=O)Nc1cc(N)c2ncc(-c3ccc(Cl)cc3)nc2n1`: the T/C is 91 % of control under setting [2], 91 % of control under setting [3] and 95 % of control under setting [4].

Turning to `COC(=O)c1cc(NS(=O)(=O)c2ccc(N)c([N+](=O)[O-])c2)cc(C(=O)OC)c1`, the T/C reads like this: under setting [1], 98 % of control; (dose: 200.0 mg/kg/injection, schedule: Q01DX009 (ip), vehicle: saline with Tween-80) 95 % of control; (dose: 400.0 mg/kg/injection, schedule: Q01DX009 (ip), vehicle: saline with Tween-80) 96 % of control.

`O=C(O)C(O)(C1CCCCC1)C1CCC2CCC3CCCC1C32` (stereo unspecified): the T/C is, setting by setting: under setting [2], 105 % of control; under setting [3], 87 % of control; under setting [4], 105 % of control.

As for `Cc1cc2cc3c(=O)[nH]c(=O)nc-3n(CC(O)C(O)C(O)CO)c2cc1C` (stereo unspecified), the T/C is 103 % of control (dose: 100.0 mg/kg/injection, schedule: Q01DX001 (ip), vehicle: saline); 107 % of control (dose: 200.0 mg/kg/injection, schedule: Q01DX001 (ip), vehicle: saline); 98 % of control (dose: 400.0 mg/kg/injection, schedule: Q01DX001 (ip), vehicle: saline).

With `O=C1N[C@@H]([C@H]2CC[C@H](Cl)CN2)C(=O)N[C@H]1[C@H]1CC[C@H](Cl)CN1`, the T/C (dose: 0.25 mg/kg/injection, schedule: Q01DX009 (iv), vehicle: saline) is 100 % of control; the T/C (dose: 0.25 mg/kg/injection, schedule: Q03HX016 (ip), vehicle: saline) was 115 % of control; the T/C (dose: 0.5 mg/kg/injection, schedule: Q01DX009 (iv), vehicle: saline) was 112 % of control; the T/C (dose: 0.5 mg/kg/injection, schedule: Q01DX009 (oral), vehicle: saline) was 108 % of control; the T/C (dose: 0.5 mg/kg/injection, schedule: Q03HX016 (ip), vehicle: saline) was 151 % of control; the T/C (dose: 0.5 mg/kg/injection, schedule: Q03HX024 (ip), vehicle: saline) is 196 % of control. In addition, the T/C is 108 % of control (dose: 1.0 mg/kg/injection, schedule: Q01DX001 (iv), vehicle: saline); 167 % of control (dose: 1.0 mg/kg/injection, schedule: Q01DX009 (ip), vehicle: saline); 160 % of control (dose: 1.0 mg/kg/injection, schedule: Q01DX009 (oral), vehicle: saline); 305 % of control (dose: 1.0 mg/kg/injection, schedule: Q03HX008 (ip), vehicle: saline); 252 % of control (dose: 1.0 mg/kg/injection, schedule: Q03HX016 (ip), vehicle: saline); 300 % of control (dose: 1.0 mg/kg/injection, schedule: Q03HX024 (ip), vehicle: saline). Besides, the T/C runs as follows: (dose: 1.0 mg/kg/injection, schedule: Q04DX003 (oral), vehicle: saline) 116 % of control; (dose: 1.0 mg/kg/injection, schedule: Q08DX002 (ip), vehicle: saline) 120 % of control; (dose: 2.0 mg/kg/injection, schedule: Q01DX001 (iv), vehicle: saline) 109 % of control; (dose: 2.0 mg/kg/injection, schedule: Q01DX001 (oral), vehicle: saline) 111 % of control; (dose: 2.0 mg/kg/injection, schedule: Q01DX001 (sc), vehicle: saline) 123 % of control; (dose: 2.0 mg/kg/injection, schedule: Q01DX009 (ip), vehicle: saline) 223 % of control. Moreover, the T/C by setting is: (dose: 2.0 mg/kg/injection, schedule: Q01DX009 (iv), vehicle: saline) 160 % of control; (dose: 2.0 mg/kg/injection, schedule: Q01DX009 (oral), vehicle: saline) 158 % of control; (dose: 2.0 mg/kg/injection, schedule: Q03HX008 (ip), vehicle: saline) 354 % of control; (dose: 2.0 mg/kg/injection, schedule: Q03HX016 (ip), vehicle: saline) 95 % of control; (dose: 2.0 mg/kg/injection, schedule: Q03HX024 (ip), vehicle: saline) 93 % of control; (dose: 2.0 mg/kg/injection, schedule: Q04DX003 (ip), vehicle: saline) 171 % of control. Besides, the T/C is, setting by setting: (dose: 2.0 mg/kg/injection, schedule: Q04DX003 (oral), vehicle: saline) 119 % of control; (dose: 2.0 mg/kg/injection, schedule: Q08DX002 (oral), vehicle: saline) 117 % of control; (dose: 2.5 mg/kg/injection, schedule: Q01DX001 (ip), vehicle: water) 155 % of control; (dose: 4.0 mg/kg/injection, schedule: Q01DX001 (ip), vehicle: saline) 157 % of control; (dose: 4.0 mg/kg/injection, schedule: Q01DX001 (oral), vehicle: saline) 124 % of control; (dose: 4.0 mg/kg/injection, schedule: Q01DX009 (ip), vehicle: saline) 107 % of control. In addition, the T/C is, setting by setting: (dose: 4.0 mg/kg/injection, schedule: Q01DX009 (iv), vehicle: saline) 157 % of control; (dose: 4.0 mg/kg/injection, schedule: Q01DX009 (oral), vehicle: saline) 86 % of control; (dose: 4.0 mg/kg/injection, schedule: Q04DX003 (ip), vehicle: saline) 188 % of control and 221 % of control; (dose: 4.0 mg/kg/injection, schedule: Q04DX003 (oral), vehicle: saline) 156 % of control; (dose: 4.0 mg/kg/injection, schedule: Q08DX002 (ip), vehicle: saline) 179 % of control; (dose: 5.0 mg/kg/injection, schedule: Q01DX001 (ip), vehicle: water) 241 % of control and 269 % of control. Further, the T/C is 261 % of control (dose: 6.0 mg/kg/injection, schedule: Q01DX001 (ip), vehicle: saline); 188 % of control (dose: 6.7 mg/kg/injection, schedule: Q01DX001 (ip), vehicle: saline); 286 % of control and 501 % of control (dose: 8.0 mg/kg/injection, schedule: Q01DX001 (ip), vehicle: saline); 157 % of control (dose: 8.0 mg/kg/injection, schedule: Q01DX001 (iv), vehicle: saline); 154 % of control and 175 % of control (dose: 8.0 mg/kg/injection, schedule: Q01DX001 (oral), vehicle: saline); 162 % of control (dose: 8.0 mg/kg/injection, schedule: Q01DX001 (sc), vehicle: saline). Moreover, the T/C (dose: 8.0 mg/kg/injection, schedule: Q04DX003 (ip), vehicle: saline) is 246 % of control; the T/C (dose: 8.0 mg/kg/injection, schedule: Q04DX003 (oral), vehicle: saline) was 164 % of control; the T/C (dose: 8.0 mg/kg/injection, schedule: Q08DX002 (ip), vehicle: saline) is 415 % of control; the T/C (dose: 8.0 mg/kg/injection, schedule: Q08DX002 (oral), vehicle: saline) is 155 % of control; the T/C (dose: 10.0 mg/kg/injection, schedule: Q01DX001 (ip), vehicle: water) is 296 % of control and 349 % of control; the T/C (dose: 16.0 mg/kg/injection, schedule: Q01DX001 (iv), vehicle: saline) is 212 % of control. Further, the T/C was 100 % of control (dose: 16.0 mg/kg/injection, schedule: Q01DX001 (oral), vehicle: saline); 94 % of control (dose: 16.0 mg/kg/injection, schedule: Q01DX001 (sc), vehicle: saline); 94 % of control and 95 % of control (dose: 16.0 mg/kg/injection, schedule: Q04DX003 (ip), vehicle: saline); 90 % of control (dose: 16.0 mg/kg/injection, schedule: Q04DX003 (oral), vehicle: saline); 100 % of control (dose: 16.0 mg/kg/injection, schedule: Q08DX002 (ip), vehicle: saline); 90 % of control (dose: 16.0 mg/kg/injection, schedule: Q08DX002 (oral), vehicle: saline).

For `C(=C(\c1ccccc1)N1CCOCC1)/c1ccccc1`, the T/C is 111 % of control (dose: 100.0 mg/kg/injection, schedule: Q01DX001 (ip), vehicle: saline sonified); 93 % of control (dose: 100.0 mg/kg/injection, schedule: Q04DX002 (ip), vehicle: saline with Tween-80); 104 % of control (dose: 200.0 mg/kg/injection, schedule: Q01DX001 (ip), vehicle: saline sonified); 96 % of control (dose: 200.0 mg/kg/injection, schedule: Q04DX002 (ip), vehicle: saline with Tween-80); 102 % of control (dose: 400.0 mg/kg/injection, schedule: Q01DX001 (ip), vehicle: saline sonified); 96 % of control (dose: 400.0 mg/kg/injection, schedule: Q04DX002 (ip), vehicle: saline with Tween-80).

Consider `O=C1c2ccccc2C(=O)N1OC1CCCCO1` (stereo unspecified), for which the T/C (dose: 100.0 mg/kg/injection, schedule: Q04DX003 (ip), vehicle: Klucel (hydroxypropylcellulose) (HPC)) is 92 % of control; the T/C (dose: 200.0 mg/kg/injection, schedule: Q04DX003 (ip), vehicle: Klucel (hydroxypropylcellulose) (HPC)) is 102 % of control; the T/C (dose: 400.0 mg/kg/injection, schedule: Q04DX003 (ip), vehicle: Klucel (hydroxypropylcellulose) (HPC)) was 94 % of control.
